# Patent US20100249383A1, “Novel Ligand Involved In The Transmigration Of Leukocytes Across the Endothelium and Uses Therefor” (The Regents of The University of California and The Burnham …, priority 2001, published 2010)
# B1: annexin I: human annexin I, from neutrophil lysates or recombinant full length from E. coli (protein, UniProt P04083 2-346, looked up)
# Annexin A1: AMVSEFLKQAWFIENEEQEYVQTVKSSKGGPGSAVSPYPTFNPSSDVAALHKAIMVKGVDEATIIDILTKRNNAQRQQIKAAYLQETGKPLDETLKKALTGHLEEVVLALLKTPAQFDADELRAAMKGLGTDEDTLIEILASRTNKEIRDINRVYREELKRDLAKDITSDTSGDFRNALLSLAKGDRSEDFGVNEDLADSDARALYEAGERRKGTDVNVFNTILTTRSYPQLRRVFQKYTKYSKHDMNKVLDLELKGDIEKCLTAIVKCATSKPAFFAEKLHQAMKGVGTRHKALIRIMVSRSEIDMNDIKAFYQKMYGISLCQAILDETKGDYEKILVALCGGN
# Tested on: mAbGB3.1
# Test: Inhibition ELISA of mAbGB3.1 binding to bovine lung proteins / immobilized BSA neoglycoproteins
# Design: species or system mouse
# Conditions: at 1 to 5 mM
# Experimental: Binding in the absence of inhibitor was defined as 100%. […] Binding at pH 7.0 was defined as 100% for each. […] Binding in the absence of inhibitor was defined as 100%.
# In these ELISAs, 96-well plates were coated with 250 ng of BSA neoglycoproteins at incubated either for 6 h at room temperature, or 4 h at 37° C. Plates were washed and blocked with 3% BSA in PBS overnight, incubated with hybridoma culture supernatants or with purified IgG diluted in PBS containing 1% BSA and 0.05% Tween 20. Incubations were for 1-2 h at room temperature, or overnight at 4° C. The plates were then washed and incubated with alkaline phosphatase conjugated goat anti-mouse IgG, followed by development with p-nitrophenyl phosphate substrate. Absorbance was measured at 405 nm in an ELISA plate reader.
# Briefly, 96-well plates were coated with 50 ng of bovine albumin (BSA) neoglycoproteins containing total bovine lung glycopeptides coupled to BSA using glutaraldehyde for 4 h at 37° C. The neoglycoproteins were prepared for immunization screening as described above.
# Plates were washed and blocked with 3% BSA in phosphate-buffered saline (PBS) overnight at 4° C. […] The plates were then washed and incubated with alkaline phosphatase conjugated goat anti-mouse IgG, followed by development with p-nitrophenyl phosphate substrate. Absorbance was measured at 405 nm in an ELISA plate reader.
row,Molecule,inhibition of mAbGB3.1 binding by glycosaminoglycan-like compounds
1,"N[C@H]1C(O)O[C@H](CO)[C@H](O)[C@@H]1O (stereo partly shown) [Chondrosarnine, chondrosamine]",do not inhibit binding
2,chondroitin sulfate,do not inhibit binding
3,hyaluronic acid [hyaluronic acid (tetramer and octamer)],do not inhibit binding

# Same assay, conditions: low mM concentrations, pH 7.5; FIG. 2 Panel C
row,Molecule,inhibition of mAbGB3.1 reactivity by carboxylic acids
1,"O=C(O)CN(CCN(CC(=O)O)CC(=O)O)CC(=O)O [EDTA, ethylenediamine tetraacetic acid]",inhibited
2,CC(=O)O [acetate],inhibited
3,O=C(O)CC(O)(CC(=O)O)C(=O)O [citrate],inhibited
4,O=C[C@H](O)[C@@H](O)[C@@H](O)[C@H](O)C(=O)O [galacturonic acid],did not inhibit binding
5,O=C[C@H](O)[C@@H](O)[C@H](O)[C@H](O)C(=O)O [glucuronic acid],did not inhibit binding
6,CC(O)C(=O)O (stereo not shown) [lactic acid],did not inhibit binding
7,CC(=O)C(=O)O [pyruvic acid],did not inhibit binding
8,O=C(O)CCC(=O)O [succinate],inhibited

# Same assay, conditions: sulfated or phosphorylated sugars tested at or below 5 mM; data not shown
row,Molecule,effect on mAbGB3.1 reactivity in the ELISA assay
1,"O=C[C@H](O)[C@@H](O)[C@@H](O)[C@H](O)COP(=O)(O)O [Gal-6-phosphate, galactose-6-phosphate]",unaffected
2,"O=C[C@H](O)[C@@H](O)[C@@H](O)[C@H](O)COS(=O)(=O)O [Gal-6-sulfate, galactose-6-sulfate]",unaffected
3,"O=P(O)(O)O[C@H]1O[C@H](CO)[C@@H](O)[C@H](O)[C@H]1O [Glc-1-phosphate, glucose-1-phosphate]",unaffected
4,"O=C[C@H](O)[C@@H](O)[C@H](O)[C@H](O)COP(=O)(O)O [Glc-6-phosphate, glucose-6-phosphate]",unaffected
5,"O=C[C@H](O)[C@@H](O)[C@H](O)[C@H](O)COS(=O)(=O)O [Glc-6-sulfate, glucose-6-sulfate]",unaffected
6,"CC(=O)N[C@H]1C(OP(=O)(O)O)O[C@H](CO)[C@@H](O)[C@@H]1O (stereo partly shown) [GlcNAc-1-phosphate, glucose-N-acetyl-1-phosphate]",unaffected
7,"CC(=O)N[C@H]1C(O)O[C@H](COP(=O)(O)O)[C@@H](O)[C@@H]1O (stereo partly shown) [GlcNAc-6-phosphate, glucose-N-acetyl-6-phosphate]",unaffected
8,"O=C[C@@H](O)[C@@H](O)[C@H](O)[C@H](O)COP(=O)(O)O [Man-6-phosphate, mannose-6-phosphate]",unaffected

# Tested on: BSA coupled 0.3 M asialo-COO^− lung glycopeptides
# Test: Depletion of annexin I and S100 proteins from human neutrophil lysates by immobilized bovine lung glycopeptides
# Assay type: binding
# Conditions: immunoblot of supernatants; FIG. 15, FIG. 16
# Experimental: In these assays, extracts from activated human neutrophils were first incubated with immobilized asialo-COO^− glycopeptides, and the residual proteins in the supernatants were analyzed by immunoblots. Since the S100A8/A9 complexes are typically destroyed during SDS-PAGE (i.e., break down into monomers), the intensity of staining in immunoblots was beyond the linearity of reaction for any quantitative evaluation.
# In these experiments, 96-well plates were coated with 250 ng of BSA coupled 0.3 M asialo-COO^− lung glycopeptides for 4 h at 37° C. and blocked with 3% BSA in PBS overnight. Human neutrophil extracts were sequentially incubated in each of four wells for 30 min/well at 37° C. in leukocyte activation buffer (described above), in presence or absence of 200 μM 0.3 M asialo-COO^− glycopeptides or asialo-CONHMe-glycopeptides. After incubation, the supernatants from the incubation wells were collected and protein depletion was analyzed by immunoblotting using the respective antibodies. For detection of S100A8/A9 complexes, the proteins in the supernatants were stabilized by chemical cross-linking using bis-sulfosuccinimidyl suberate (BS^3) as known in the art (See, Staros, Biochem., 21:3590 [1982]). Briefly, the cross linker was added from a fresh 2 mM stock solution to neutrophil lysates obtained as described above, to a final concentration of 200 μM, and the mixture was incubated at room temperature for 30 min. Reactions were quenched by the addition of 1 M Tris to a final concentration of 10 mM and samples were stored at −80° C., until they were assayed. Cross-linked samples were incubated with 2-mercaptoethanol prior to separation on SDS-PAGE. Since crude lysates were used in the cross-linking, it is conceivable that non-specific cross-linking could occur. Therefore, only the bands that were still strongly stained with increasing dilution of both anti-S100A8 and anti-S100A9 were identified.
row,Molecule,depletion from neutrophil extracts after binding to the glycopeptides
1,S100A8 homodimer: cross-linked S100A8 homodimer from human neutrophil extracts,depleted
2,S100A8/A9 heterodimer: S100A8•S100A9 heterodimer from human neutrophil extracts,depleted
3,S100A8/A9 heterotrimer: (S100A8)2•S100A9 heterotrimer from human neutrophil extracts,depleted

# Same assay, conditions: intact (37 kDa) protein; FIG. 16 lane 2
row,Molecule,depletion from the neutrophil preparations after binding to carboxylate-enriched glycopeptides
1,B1,> 90%

# Tested on: 0.3 M asialo-COO^− glycopeptide-BSA neoglycoproteins
# Test: ELISA binding of purified proteins to immobilized carboxylated bovine lung glycans
# Conditions: FIG. 19 or data not shown
# Experimental: In additional ELISA experiments, 96-well plates were coated with 0.3 M asialo-COO^− glycopeptide-BSA neoglycoproteins (250 ng/well) for 4 h at 37° C. (control wells had BSA alone) and blocked with 3% BSA in PBS overnight. The wells were then incubated with purified human annexin I or S100A8/A9 complexes (as appropriate), in 10 mM HUES buffer pH 7.5 containing 150 mM NaCl, 5 mM KCl, 1.2 mM MgCl2 and 1.3 mM CaCl2, in the absence or presence of varying concentrations of 0.3 M asialo-COO^− glycopeptides or 0.3 M asialo-CONHMe-glycopeptides for 2 h at room temperature. This was followed by incubation with anti-bovine annexin I antibody or anti-human S100A8 or anti-S100A9 for 2 h at room temperature. Wells were then washed and incubated with alkaline phosphatase conjugated goat anti-mouse IgG, followed by development with p-nitrophenyl phosphate substrate.
# In this Example, experiments conducted to assess amphoterin binding to COO^− glycopeptide coated plates was assayed as described earlier for annexin I and S100 proteins. In addition, bound protein was detected using anti-amphoterin. mAbGB3.1 binding to sRAGE was assessed by first coating sRAGE on microtiter wells for 4 h at 37° C. After blocking with 3% BSA in PBS overnight, wells were incubated with mAbGB3.1 in the presence and absence of COO^−or CONHMe-glycopeptide and developed as described above.
row,Molecule,binding to immobilized carboxylated vs neutralized glycans
1,S100A1: other S100 protein,remained constant
2,S100A8: recombinant S100A8 alone,does not show specific binding
3,S100B: other S100 protein,remained constant
4,B1,bound

# Tested on: [2-^3H]mannose-labeled CPAE glycoproteins
# Test: Precipitation of mannose-labeled glycoproteins and cross-binding
# Design: species or system bovine
# Conditions: primary binding
# Experimental: Calf pulmonary artery endothelial cells (CPAE) cells were labeled with [2-^3H] mannose at 20 μCi/ml for 24 h in alpha MEM containing 10% fetal bovine serum. Cells were harvested by trypsinization, washed thrice in PBS, and lysed in PBS containing protease inhibitors and 0.5% NP40. Protein-rich lysates were prepared by ultrafiltration on YM10 membranes. Purified S100A8/A9 or annexin I proteins were immobilized on Affigel-10, and mixed with the labeled glycoproteins from CPAE cells in 10 mM HEPES buffer pH 7.5 containing 150 mM NaCl, 5 mM KCl, 1.2 mM MgCl2 and 1.3 mM CaCl2 after preclearing the lysates with BSA-Affigel 10. For immunoprecipitations using mAbGB3.1, lysates were precleared with normal mouse IgG-protein G beads and then incubated with Protein G coupled to mAbGB3.1 IgG in PBS. After overnight incubation at 4° C., the individual pellets were washed free of all unbound label until no more counts appeared in the washes, and the radioactivity associated with the pellets was measured.
# For cross-binding, label associated with each pellet was first eluted using high salt (5 M MgCl2, which eluted >70% bound label). The eluates were repeatedly desalted on YM10 membranes and resuspended in the respective buffers. Label eluted from mAbGB3.1 gels was mixed with immobilized S100A8/A9 or annexin I and vice versa. Again, after overnight incubation at 4° C., the individual pellets were washed free of all unbound label and counted. […] In comparison, immobilized annexin I precipitated only about 2-3% of mannose labeled glycoproteins from endothelial cells (data not shown).
row,Molecule,% Bound Radioactivity (mean ± SD)
1,B1,2-3%
